Reference: patent US7838553B2, “Benzopyran derivatives as potassium channel openers” (Janssen Pharmaceutica NV, priority 2005, dated 2010)

These compounds were tested against T1, KATP channels (Homo sapiens, UniProt O60706+Q14654) (assay: Potassium Channel Assay (FLIPR membrane potential)). Settings: TE671 human medulloblastoma cells, Membrane Potential Assay Dye, room temperature, hyperpolarization from KATP channel opening.
T1 construct: TE671 human medulloblastoma cells were obtained from ATCC; host or cells: TE671 human medulloblastoma cells
T1 sequence (O60706 1-1549 isoform O60706-2): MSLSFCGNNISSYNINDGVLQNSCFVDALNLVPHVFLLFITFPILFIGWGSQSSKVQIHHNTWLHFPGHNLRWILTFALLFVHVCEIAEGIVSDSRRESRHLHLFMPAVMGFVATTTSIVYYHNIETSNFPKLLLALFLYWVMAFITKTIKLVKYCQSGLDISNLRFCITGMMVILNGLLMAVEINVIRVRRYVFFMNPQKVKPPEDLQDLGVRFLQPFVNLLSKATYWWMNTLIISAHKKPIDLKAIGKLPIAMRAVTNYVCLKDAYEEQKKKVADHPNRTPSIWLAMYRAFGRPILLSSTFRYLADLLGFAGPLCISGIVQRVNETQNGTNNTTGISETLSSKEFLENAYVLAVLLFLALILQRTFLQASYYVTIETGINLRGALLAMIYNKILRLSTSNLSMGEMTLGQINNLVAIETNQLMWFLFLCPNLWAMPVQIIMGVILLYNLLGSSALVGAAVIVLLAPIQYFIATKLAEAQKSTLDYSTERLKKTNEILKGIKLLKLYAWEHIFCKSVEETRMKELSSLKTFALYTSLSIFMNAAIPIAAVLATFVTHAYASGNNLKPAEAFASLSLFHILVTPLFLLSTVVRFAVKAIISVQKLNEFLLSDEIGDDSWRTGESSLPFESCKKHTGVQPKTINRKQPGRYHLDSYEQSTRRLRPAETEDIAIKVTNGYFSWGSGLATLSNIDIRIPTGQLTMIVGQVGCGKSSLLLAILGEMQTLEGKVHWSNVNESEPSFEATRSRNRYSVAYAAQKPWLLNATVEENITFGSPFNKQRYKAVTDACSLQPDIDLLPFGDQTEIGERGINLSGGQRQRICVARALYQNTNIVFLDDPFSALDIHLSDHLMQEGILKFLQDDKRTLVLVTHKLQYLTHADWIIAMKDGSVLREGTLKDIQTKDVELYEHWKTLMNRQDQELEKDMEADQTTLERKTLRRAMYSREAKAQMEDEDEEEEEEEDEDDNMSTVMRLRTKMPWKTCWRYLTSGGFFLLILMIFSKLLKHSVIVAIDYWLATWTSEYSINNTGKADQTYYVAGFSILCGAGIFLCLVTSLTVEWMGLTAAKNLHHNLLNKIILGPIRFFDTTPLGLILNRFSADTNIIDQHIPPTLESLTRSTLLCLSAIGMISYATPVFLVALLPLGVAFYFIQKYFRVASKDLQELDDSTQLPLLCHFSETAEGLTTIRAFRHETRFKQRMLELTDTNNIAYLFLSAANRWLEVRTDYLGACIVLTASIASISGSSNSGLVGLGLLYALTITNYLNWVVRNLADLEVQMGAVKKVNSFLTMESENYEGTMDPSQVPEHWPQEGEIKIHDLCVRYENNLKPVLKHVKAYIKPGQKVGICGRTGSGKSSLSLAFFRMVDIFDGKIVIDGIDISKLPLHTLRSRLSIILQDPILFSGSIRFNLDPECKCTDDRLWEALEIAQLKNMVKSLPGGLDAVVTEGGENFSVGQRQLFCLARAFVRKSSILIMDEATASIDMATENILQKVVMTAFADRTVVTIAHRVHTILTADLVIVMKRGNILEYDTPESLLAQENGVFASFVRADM
T1 sequence (Q14654 whole entry): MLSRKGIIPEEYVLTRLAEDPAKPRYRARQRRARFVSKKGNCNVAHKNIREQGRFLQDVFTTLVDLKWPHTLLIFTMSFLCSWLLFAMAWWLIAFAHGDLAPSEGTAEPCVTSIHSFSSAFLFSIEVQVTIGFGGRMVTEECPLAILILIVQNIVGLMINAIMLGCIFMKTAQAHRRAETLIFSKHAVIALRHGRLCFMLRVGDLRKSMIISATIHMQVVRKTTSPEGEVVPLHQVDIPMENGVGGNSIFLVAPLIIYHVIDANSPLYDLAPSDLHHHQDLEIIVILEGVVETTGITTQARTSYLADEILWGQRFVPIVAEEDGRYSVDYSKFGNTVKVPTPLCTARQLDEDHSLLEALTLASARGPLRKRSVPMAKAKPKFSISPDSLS
Assay type: cell-based
Protocol: TE671 human medulloblastoma cells were obtained from ATCC and grown in Dulbecco's modified Eagle's medium (DMEM) supplemented with 10% fetal bovine serum, 100 U/ml penicillin and […].
The day before testing, the cells were plated in black 96-well plates at 50 K/well. On the day of testing, the growth media was removed, then 100 μl of FLIPR buffer (20 mM HEPES, 120 mM NaCl, 2 mM KCl, 2 mM CaCl2, 1 mM MgCl2, 5 mM Glucose) and 100 μl of Membrane Potential Assay Dye (Molecular Devices) dissolved in FLIPR buffer were added to each well. The cells were incubated at room temperature for 15 to 30 min.
The effect of test compounds on KATP channels were evaluated on a fluorometric imaging plate reader (FLIPR, Molecular Devices) at room temperature. After a baseline period, 50 μl of 5× stock solution of test compound prepared in FLIPR buffer was added and fluorescent change was monitored for 3 minutes. After this reading, glyburide, a KATP channel blocker, was added to a final concentration of 5 μM to check the specificity of the test compound as a KATP channel openers. Hyperpolarization resulting from KATP channel opening was observed as a decrease in fluorescent intensity.
Representative compounds of the present invention were tested according to the procedure described above, with results as listed in Table 7, below.
Compound `CC1(C)Oc2ccc(S(=O)(=O)c3ccccc3)cc2[C@@H](Oc2noc3ccc(Cl)cc23)[C@@H]1O` [Compound 75, (3S,4R)-6-Benzenesulfonyl-4R-(5-chloro-benzo[d]isoxazol-3-yloxy)-2,2-dimethyl-chroman-3S-ol] has an EC50 greater than 30 µM.
Work on `CC1(C)Oc2ccncc2[C@@H](n2c(=O)ccn2-c2ccc(Cl)cc2)[C@@H]1O` (racemic) [Compound 110, 1-(4-Chloro-phenyl)-2-(3-hydroxy-2,2-dimethyl-3,4-dihydro-2H-pyrano[32-c]pyridin-4-yl)-1,2-dihydro-pyrazol-3-one] yielded an EC50 greater than 30 µM.
`CC1(C)Oc2ccc(C#N)cc2[C@@H](Sc2ncc[nH]2)[C@@H]1O` [Compound 25, (3S,4R)-3-Hydroxy-4-(2H-imidazol-2-ylsulfanyl)-2,2-dimethyl-chroman-6-carbonitrile] gave an EC50 of 0.84 µM.
